Results on 20 compounds are retold here after patent US20230150951A1, “2,5- OR 2,6-DISUBSTITUTED HYDROQUINONE DERIVATIVES WITH AT LEAST ONE CARBOXY, SULFO OR AMIDO GROUP USEFUL AS MEDICAMENTS” (OM PHARMA SA, priority 2020, published 2023).

What all share (type): cell-based
In one test the target is T1, FGF-1 (Homo sapiens, UniProt P05230).
T1 construct: purchased Peprotech 100-17A
The test can be described thus: FGF-1 induced sprouting of HUVEC, spheroid-based cellular angiogenesis assay. The conditions noted are these: FGF-1 25 ng/mL preincubated with compound, 24 h. In a few lines:
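Spheroids of 400 HUVEC (passage 3–4), embedded in collagen gel, were stimulated with FGF-1, FGF-2 or VEGF-A (final 25 ng/mL) preincubated 30 min at 37°C with compound (final 1.56–100 μM).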

For another test, the system named is IL-5. The test can be described thus: Cytokine release after LPS induction on human whole blood: IL-5. The protocol:
(§1) Aim of this in vitro method is to assess compounds effects on release of a panel of cytokines from whole blood following lipopolysaccharide (LPS) induced inflammatory reaction. Whole blood was incubated with compounds for 1 h prior to LPS induction. Cytokine levels in blood were measured using a multiplex FACS-based panel.
(§2) IC50 values determined for the tested compounds expressed in microM [μM] and the values for the inhibition of cytokines were listed for each compound.
(§3) Effect on cytokines release after LPS induction was performed on the compounds dissolved in DMSO or H2O to reach 10-fold concentrated stock solutions and dissolved in culture media.
(§4) Test system: Whole blood was removed from a single donor (into lithium heparin coated tubes; BD Vacutainer; 367886) and diluted 1:5 with RPMI 1640 (Thermo Fisher, 61870036). Within 30 minutes of sampling, blood was incubated with compounds for 1 h prior to LPS stimulation (O111:B4—Sigma L4391; 10 ng/ml final concentration). Stimulation continued under standard cell culture conditions (37° C. with 5% CO2) overnight (18 h), after which plates were centrifuged and supernatant removed and frozen at −80° C. until used for analyses.
(§5) Dilution of test compounds: 10×concentrated solutions (concerning to the final assay concentrations) of each test compound were prepared with the appropriate solvent (in DMSO or in water). These 10× compound solutions (10 μl) were then added to 90 μl pre-diluted whole blood (whole blood: RPMI1640, 1:5) resulting in the final assay concentration.
(§6) Test method: Diluted whole blood (80 μl) was pre-incubated with compounds (10 μl) to give final assay concentrations of 100, 30, 10, 3, 1, 0.3 and 0.1×10^−6M. Blood was incubated at 37° C. with 5% CO2 for 1 h. LPS was diluted in cell culture media to a concentration of […]; 10 μl was added to the whole blood to give a final concentration of 10 ng/ml. Plates were incubated at 37° C. for 18 h. Plates were centrifuged at 3,000 RPM for 5 minutes at 4° C. and supernatant removed and frozen at −80° C. until FACS analysis was carried out.
(§7) Cytokine release was measured using a custom multiplex system (ELISA Genie) according to manufacturers instructions. Prepared samples were run on an Attune NxT flow cytometer (Thermo Fisher).
(§8) Quantification of cytokine release inhibition: known concentration standards were run as part of the cytokine panel to allow quantification of each cytokine concentration in each sample. This was carried out using FCAP Array v3.0 software.
(§9) Results: The dose response relationship on cytokine release following LPS induction of inflammatory response in whole blood was assessed for all compounds. IC50 values were determined for each compound for a panel of cytokines (GM-CSF, IFN-gamma, IL-1beta, IL-2, IL-4, IL-5, IL-6, IL-8, IL-9, IL-10, IL-12p40, IL-13, IL-17A, IL-17F, IL-18, IL-21, IL-22, IL-33, TGF-beta, TNF-alpha, TNF-beta).

The subject of the next test is IL-9. The test can be described thus: Cytokine release after LPS induction on human whole blood: IL-9. The protocol: as §1, §2, §3, §4, §5, §6, §7, §8, §9
Setting [1] is: Homo sapiens, LPS 10 ng/ml, 18 h, read-out: Whole Blood: IL-5 IC50.
Where [2] appears, read: human whole blood, inhibition of LPS induced inflammation, read-out: IC50 IL-5.
Where [3] appears, read: Homo sapiens, LPS 10 ng/ml, 18 h, read-out: Whole Blood: IL-9 IC50.
Where [4] appears, read: human whole blood, inhibition of LPS induced inflammation, read-out: IC50 IL-9.

SMILES strings stand for the structures. Where two headings read alike, the source gives them in different places.

T1 sequence (P05230 whole entry): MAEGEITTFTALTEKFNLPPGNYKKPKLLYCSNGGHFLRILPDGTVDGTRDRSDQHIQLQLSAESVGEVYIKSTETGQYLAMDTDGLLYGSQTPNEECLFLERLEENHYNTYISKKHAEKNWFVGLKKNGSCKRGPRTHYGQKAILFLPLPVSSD

Consider `O=C(O)c1cc(O)c(C(=O)Nc2ccc(-c3nnn[nH]3)cc2)cc1O` [Ia-003a-Tz, 4-(4-(1H-tetrazol-5-yl)phenyl-aminocarbonyl)-2,5-dihydroxybenzoic acid], for which the concentration for half-maximal inhibition (IC50) on FGF-1 is 6.7 µM; in the test with IL-5 (setting [1]), above 100 µM; in the test on IL-5 (setting [2]) it was 100 µM; with IL-9 (setting [3]) it was 3.62 µM; in the test with IL-9 (setting [4]), 3.62 µM.
In the case of `O=C(O)c1cc(O)cc(CSCc2cc(O)cc(C(=O)O)c2O)c1O` [IVc-058a, 3-((2,5-Dihydroxy-3-carboxyphenyl)methylthiomethyl)-2,5-dihydroxybenzoic acid], the IC50 on FGF-1 is 36 µM; with IL-5 (setting [1]), above 100 µM; in the test on IL-5 (setting [2]), 100 µM; with IL-9 (setting [3]), 31.1 µM; in the test on IL-9 (setting [4]), 31.1 µM.
As to `O=C(O)Cc1cc(O)c(C(=O)Nc2ccccc2-c2nnn[nH]2)cc1O` [IIIa-001aTz], the IC50 on FGF-1 was 51 µM; with IL-5 (setting [1]) it was above 100 µM; with IL-5 (setting [2]), 100 µM; in the test with IL-9 (setting [3]) it was 3.01 µM; in the test with IL-9 (setting [4]) it was 3.01 µM.
For the compound `O=C(Nc1ccccc1-c1nnn[nH]1)c1cc(O)c(C(=O)Nc2ccccc2-c2nnn[nH]2)cc1O` [Ic-001aTz2, N1,N4-bis(2-(1H-tetrazol-5-yl)phenyl)-2,5-dihydroxyterephthalamide], the IC50 at FGF-1 was at least 200 µM; with IL-5 (setting [1]) it was above 100 µM; with IL-9 (setting [3]), 9.13 µM.
For the compound `O=C(O)c1cc(O)c(C(=O)Nc2ccccc2-c2nnn[nH]2)cc1O` [Ia-001a-Tz, 4-(2-(1H-tetrazol-5-yl)phenyl-aminocarbonyl)-2,5-dihydroxybenzoic acid], the IC50 on FGF-1 was 6.2 µM; in the test on IL-5 (setting [1]) it was above 100 µM; in the test on IL-5 (setting [2]) it was 100 µM; in the test on IL-9 (setting [3]) it was 8.63 µM; in the test on IL-9 (setting [4]), 8.63 µM.
On to `O=C(O)Cc1cc(O)c(C(=O)Nc2c(C(=O)O)cccc2C(=O)O)cc1O` [IIIa-013a, 2-(4-(carboxymethyl)-2,5-dihydroxybenzamido)isophthalic acid], for which the IC50 on FGF-1 is 17 µM; in the test with IL-5 (setting [1]) it was above 100 µM; in the test with IL-5 (setting [2]) it was 100 µM; with IL-9 (setting [3]) it was 11.9 µM; in the test on IL-9 (setting [4]), 11.9 µM.
Consider `COC(=O)c1cc(OC(C)=O)cc(CS(=O)(=O)Cc2cc(OC(C)=O)cc(C(=O)OC)c2OC(C)=O)c1OC(C)=O` [IVc-059a-E2-A4], for which the IC50 was 54 µM at FGF-1; above 100 µM in the test on IL-5 (setting [1]); 100 µM in the test on IL-5 (setting [2]); 2.9 µM in the test with IL-9 (setting [3]); 2.9 µM in the test with IL-9 (setting [4]).
As for `O=C(O)c1cc(NC(=O)c2cc(O)c(C(=O)O)cc2O)cc(NC(=O)c2cc(O)c(C(=O)O)cc2O)c1` [Ib-010a, 3,5-bis(2,5-dihydroxy-4-carboxybenzoylamino)benzoic acid], the IC50 is 14 µM at FGF-1; above 100 µM with IL-5 (setting [1]); 100 µM in the test on IL-5 (setting [2]); 11.6 µM with IL-9 (setting [3]); 11.6 µM in the test with IL-9 (setting [4]).
For `O=C(O)c1cc(O)cc(CS(=O)(=O)Cc2cc(O)cc(C(=O)O)c2O)c1O` [IVc-059a, 3-((2,5-Dihydroxy-3-carboxyphenyl)methylsulfonylmethyl)-2,5-dihydroxybenzoic acid], the IC50 at FGF-1 was 6.7 µM; in the test on IL-5 (setting [1]), above 100 µM; in the test with IL-5 (setting [2]) it was 100 µM; with IL-9 (setting [3]), 0.4 µM; in the test with IL-9 (setting [4]), 0.4 µM.
In the case of `O=C(O)c1cc(NC(=O)c2cc(O)c(C(=O)Nc3ccc(O)c(C(=O)O)c3)cc2O)ccc1O` [Ic-007a, 5-(4-(3-carboxy-4-hydroxyphenylaminocarbonyl)-2,5-dihydroxybenzamido)-2-hydroxy benzoic acid], the IC50 was 13 µM on FGF-1; above 100 µM with IL-5 (setting [1]); 100 µM in the test with IL-5 (setting [2]); 27.1 µM in the test with IL-9 (setting [3]); 27.1 µM with IL-9 (setting [4]).
As for `O=C(O)c1cc(O)c(C(=O)Nc2ccccc2C(=O)O)cc1O` [Ia-001a, 4-(2-carboxyphenylaminocarbonyl)-2,5-dihydroxybenzoic acid], the IC50 on FGF-1 was 41 µM; in the test with IL-5 (setting [1]), above 100 µM; in the test on IL-5 (setting [2]) it was 100 µM; in the test with IL-9 (setting [3]), 5.63 µM; in the test on IL-9 (setting [4]), 5.63 µM.
Consider `O=C(O)c1cc(O)ccc1NC(=O)c1cc(O)cc(C(=O)Nc2ccc(O)cc2C(=O)O)c1O` [IIc-009a, 2-(3-(2-carboxy-4-hydroxyphenylaminocarbonyl)-2,5-dihydroxybenzamido)-5-hydroxyl benzoic acid], for which the IC50 at FGF-1 was 30 µM; with IL-5 (setting [1]), above 100 µM; in the test with IL-5 (setting [2]), 100 µM; with IL-9 (setting [3]), 18.9 µM; in the test on IL-9 (setting [4]), 18.9 µM.
`O=C(O)c1ccccc1CNC(=O)c1cc(O)cc(C(=O)O)c1O` [IIa-053a, 3-(2-Carboxyphenylmethylaminocarbonyl)-2,5-dihydroxybenzoic acid]: the IC50 at FGF-1 is 84 µM; in the test with IL-5 (setting [1]), above 100 µM; in the test on IL-5 (setting [2]) it was 100 µM; in the test on IL-9 (setting [3]), 1.41 µM; with IL-9 (setting [4]) it was 1.41 µM.
Consider `O=C(O)c1cc(NC(=O)c2cc(O)cc(C(=O)Nc3ccc(O)c(C(=O)O)c3)c2O)ccc1O` [IIc-007a, 5-(3-(3-carboxy-4-hydroxyphenylaminocarbonyl)-2,5-dihydroxybenzamido)-2-hydroxy benzoic acid], for which the IC50 on FGF-1 was 11 µM; with IL-5 (setting [1]) it was above 100 µM; with IL-5 (setting [2]), 100 µM; with IL-9 (setting [3]), 2.14 µM; in the test with IL-9 (setting [4]) it was 2.14 µM.
In the case of `CC(=O)N(Cc1cc(O)c(C(=O)O)cc1O)Cc1cc(O)c(C(=O)O)cc1O` [IIIc-057a, N,N-Bis(4-carboxy-2,5-dihydroxyphenylmethyl)acetamide], the IC50 at FGF-1 is 87 µM; in the test with IL-5 (setting [1]), above 100 µM; in the test with IL-5 (setting [2]), 100 µM; in the test on IL-9 (setting [3]), 11.1 µM; with IL-9 (setting [4]), 11.1 µM.
Take `O=C(O)c1cc(O)c(C(=O)Nc2ccccc2S(=O)(=O)O)cc1O` [Ia-001c, 2,5-dihydroxy-4-(2-sulfophenylaminocarbonyl)benzoic acid]: the IC50 was 21 µM at FGF-1; above 100 µM with IL-5 (setting [1]); 100 µM with IL-5 (setting [2]); 46.9 µM in the test with IL-9 (setting [3]); 46.9 µM in the test with IL-9 (setting [4]).
Consider `O=C(O)c1cc(O)c(CN(Cc2cc(O)c(C(=O)O)cc2O)Cc2cc(O)c(C(=O)O)cc2O)cc1O` [IIIc-061a, Tris(4-carboxy-2,5-dihydroxyphenylmethyl)amine], for which the IC50 is above 100 µM in the test on IL-5 (setting [1]), 100 µM in the test with IL-5 (setting [2]), 8.85 µM in the test with IL-9 (setting [3]) and 8.85 µM in the test with IL-9 (setting [4]).
With `O=C(O)c1cc(NC(=O)c2cc(O)c(C(=O)Nc3ccccc3-c3nnn[nH]3)cc2O)ccc1O` [Ic-001a-Tz/004a, 5-(4-(2-(1H-tetrazol-5-yl)phenylaminocarbonyl)-2,5-dihydroxybenzamido)-2-hydroxy benzoic acid], the IC50 at FGF-1 is 19 µM; in the test with IL-5 (Homo sapiens, 18 h, read-out: Whole Blood: IL-5 IC50), above 100 µM; in the test on IL-5 (Homo sapiens, read-out: IC50 IL-5), 100 µM; in the test with IL-9 (Homo sapiens, 18 h, read-out: Whole Blood: IL-9 IC50), 8.48 µM; with IL-9 (Homo sapiens, read-out: IC50 IL-9) it was 8.48 µM.
Take `O=C(O)c1cc(NC(=O)c2cc(O)c(C(=O)O)cc2O)cc(C(=O)O)c1` [Ia-015a, 5-(4-carboxy-2,5-dihydroxybenzamido)isophthalic acid]: the IC50 was 20 µM on FGF-1; above 100 µM in the test on IL-5 (setting [1]); 100 µM in the test with IL-5 (setting [2]); 1.47 µM with IL-9 (setting [3]); 1.47 µM in the test on IL-9 (setting [4]).
Take `CCOC(=O)c1cc(NC(=O)c2cc(O)c(C(=O)OCC)cc2O)cc(NC(=O)c2cc(O)c(C(=O)OCC)cc2O)c1` [Ib-010a-E3, ethyl 3,5-bis(2,5-dihydroxy-4-ethoxycarbonylbenzoylamino)benzoate]: the IC50 at FGF-1 was 26 µM; in the test with IL-5 (setting [1]), above 100 µM; in the test with IL-5 (setting [2]), 100 µM; in the test on IL-9 (setting [3]), 26.8 µM; in the test with IL-9 (setting [4]), 26.8 µM.

By IC50 is commonly meant the concentration that gives 50% inhibition.
